The values below are quoted from earlier work in patent US20080312245A1, “Methods and compositions for treating acne and other infectious diseases” (priority 2007, published 2008).

Structures are written as SMILES.

With `Cc1ncc([N+](=O)[O-])n1CCO` [Metronidazole, 2-methyl-5-nitro-1H-imidazole-1-ethanol], the solubility in alcohol result is recorded as “slightly soluble”.
